# Results: article PMC7582672, “Actions of FTY720 (Fingolimod), a Sphingosine-1-Phosphate Receptor Modulator, on Delayed-Rectifier K^+ Current and Intermediate-Conductance Ca^2+-Activated K^+ Channel in Jurkat T-Lymphocytes” (Molecules, 2020)
# Target: T1, intermediate-conductance Ca2+-activated K+ channel (IKCa, KCa3.1) (Homo sapiens, UniProt O15554)
# T1 construct: gene KCNN4
# Experiment: cell-attached single-channel recording in Jurkat T-lymphocytes (activator)
# Format: cell-based
# T1 sequence (O15554 whole entry): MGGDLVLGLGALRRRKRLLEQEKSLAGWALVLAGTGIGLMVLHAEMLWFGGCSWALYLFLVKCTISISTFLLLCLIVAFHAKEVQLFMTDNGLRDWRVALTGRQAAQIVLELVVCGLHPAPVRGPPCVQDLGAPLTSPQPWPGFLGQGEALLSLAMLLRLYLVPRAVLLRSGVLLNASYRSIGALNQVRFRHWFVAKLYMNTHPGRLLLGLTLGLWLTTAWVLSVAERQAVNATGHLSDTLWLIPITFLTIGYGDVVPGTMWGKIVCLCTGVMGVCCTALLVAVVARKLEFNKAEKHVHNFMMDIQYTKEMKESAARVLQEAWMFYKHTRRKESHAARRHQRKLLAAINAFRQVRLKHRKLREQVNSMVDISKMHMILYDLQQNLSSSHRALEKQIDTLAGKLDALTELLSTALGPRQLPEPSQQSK
compound,measurement,value
Oc1cc2ccccc2c2ccccc12 [9-phenanthrol],cell-attached single-channel recording in Jurkat T-lymphocytes (activator),"activity of IKCa channels, which was sensitive to block by TRAM-34 and to stimulation by 9-phenanthrol, was readily detected"
